# Results published in patent US8624079B2, “Knockin mouse with a disruption in a PXR gene expressing human PXR” (ITI Scotland Limited, priority 2007, dated 2014).
# “Also recorded” adds a separate entry of the source. Read-outs that look alike come from different tables or passages of the source.
# Experiments:
# [1] = Experimental: For the same animals, plasma levels of alanine aminotransferase (ALT), alkaline phosphatase (ALP) and aspartate aminotransferase (AST) were also measured (see FIG. 40). […] Both compounds were administered at 40 mg/kg.
# Plasma levels of alanine aminotransferase (ALT), alkaline phosphatase (ALP) and aspartate aminotransferase (AST) were also measured (see FIG. 46).
# Cyp2b10 [2] = test: pentoxyresorufin-O-deethylation (PROD) and BROD activity assay in liver microsomes of treated mice
# Cyp2b10 [3] = test: Cyp2b10 protein expression of treated mice by SDS-PAGE and Western blotting; settings: for Cyp2b10 induction profile (Western blot and PROD, liver microsomes): wild-type vs huCAR mice, increasing amounts; for Cyp2b10 induction (Western blot and PROD activity): CITCO 10 mg/kg
# Experimental: (§1) Dosing solutions were prepared on the day of administration by adding corn oil to the requisite quantity of test substance and stirring to obtain a solution or fine suspension. The concentration of PCN was 10 mg/ml and Rif 2.5 mg/ml of supplied chemical, without any correction for purity. Records of preparation were retained.
# Control animals were administered vehicle (corn oil) daily by intraperitoneal injection. The volume of vehicle and solutions of inducing agents administered was 10 ml/kg bodyweight. This route of administration was chosen for consistency with previously published work. […]
# (§2) Quantification of Cyp3a11, Cyp2b10 and PXR protein in liver microsomes of all mice samples was carried out by SDS-PAGE and Western blotting. To detect murine and human PXR protein, an antibody (RF8) was employed. For the identification of Cyp3a and Cyp2b, […] were used, (CH32 and CH4, respectively).
# [4] = tested on: components of drug metabolism pathways; settings: inducer of components of drug metabolism pathways; species in which it is known to act more potently; cited from earlier work
# cytochrome P450 enzymes = settings: single ip; for induction of testosterone 16-beta-hydroxylation: 1 mg/kg
# Experimental: The study consisted of 3 animals per group. Control groups consisted of mice treated with either corn oil daily for 4 days or mice administered a single injection of corn oil. The treated mice were dosed with inducing agents as detailed in Table 3.1.
# PXR activity was determined by measuring the metabolism of a number of cytochrome P450 substrates which are metabolised to different extents by different cytochrome P450 enzymes. The following assays were performed: • 7-benzyloxyquinoline (BQ) activity was determined in liver microsomes. • Testosterone hydroxylase activity was determined in liver microsomes (LMS HPLC-006). • The specific activities of these reactions was expressed per mg protein as determined using the Lowry assay (LMS Spec-0001).
# Cyp3a11 [5] = test: Cyp3a11 protein expression in liver microsomes of treated mice by SDS-PAGE and Western blotting; settings: for Cyp3a11 expression in liver (Western blot): single injection 0, 1, 10, 50 mg/kg, 48 hours
# Experimental: as §1
# The volume of vehicle and solutions of inducing agents administered was 10 ml/kg bodyweight. This route of administration was chosen for consistency with previously published work. […]
# as §2
# liver cells = test: BrdU incorporation in liver (hepatic cell proliferation, S-phase labelling index); type: in vivo, mouse; settings: wild-type and huCAR mice
# [6] = Pentobarbitone sleeping test; type: in vivo, mouse; settings: single ip dose 25 mg/kg
# Experimental: In this experiment, the activity of these transcription factors in combination was determined by measuring the barbiturate induced sleeping time. Sleeping time has been known for many years to be directly proportional to the hepatic cytochrome P450 activity and this activity can be at least in part ascribed to the P450 levels in the liver determined by CAR and PXR function.
# Mice were given a single intraperitoneal dose of Narcoren (sodium pentobarbitone; purchased via a Veterinary Consultant; distributed by Merial GmbH, Germany) at 25 mg/kg of body weight. The time taken for the mice to lose, and subsequently to regain, their righting reflex was measured.
# Cyp3a11 [7] = settings: wild-type mice (Ma et al. 2007); cited from earlier work
# [8] = wild type mice, TCPOBOP 1 mg/kg
compound,measurement,setting,value
C[C@@H]1C[C@H]2[C@@H]3CCC4=CC(=O)C=C[C@]4(C)[C@@]3(F)[C@@H](O)C[C@]2(C)[C@@]1(O)C(=O)CO [dexamethasone],mortality,"[1]; huPXR mice, dexamethasone 60 mg/kg",One dexamethasone-treated huPXR mouse died
same,increase in plasma ALT levels and liver weights,"[1]; mouse, in vivo, 30 mg/kg",clearly more pronounced in mice lacking murine PXR
same,"Cyp2b10 induction (PROD activity), comparison","Cyp2b10 [2]; huCAR vs wild type mice, 10 mg/kg",weaker in huCAR than in wild type mice
same,PROD activity,"Cyp2b10 [2]; koCAR mice, 40 mg/kg",still induced
same,PROD activity,"Cyp2b10 [2]; wild-type, huPXR and koPXR mice, 60 mg/kg",corresponding results were obtained
same,Cyp2b10 expression,"Cyp2b10 [3]; mouse, in vivo, 10 mg/kg",induced Cyp2b10 expression in both wild-type and huCAR mice
same,"Cyp2b10 induction (Western blot), comparison","Cyp2b10 [3]; mouse, in vivo, 10 mg/kg",less pronounced in huCAR than in wild-type mice
same,Cyp2b10 expression in liver (Western blot),"Cyp2b10 [3]; mouse, in vivo, 40 mg/kg",still induced
same,induction of Cyp2b10 (Western blot),"Cyp2b10 [3]; mouse, in vivo, 60 mg/kg",induced
Clc1cnc(Oc2ccc(Oc3ncc(Cl)cc3Cl)cc2)c(Cl)c1 [TCPOBOP],More potent in:,[4],mouse
same,induction of testosterone 16-beta-hydroxylation,cytochrome P450 enzymes; huPXR mice,1.7 fold
same,induction of 6-beta-hydroxylation of testosterone,"cytochrome P450 enzymes; wild type and huPXR mice, TCPOBOP 0.3 and 1 mg/kg",inducible in both strains of mouse
same,induction of testosterone 16-beta-hydroxylation,cytochrome P450 enzymes; wild type mice,approximately 6 fold
same,induction of testosterone 16-alpha-hydroxylation,"cytochrome P450 enzymes; wild type mice, TCPOBOP 0.3 and 1 mg/kg",significantly induced
same,Cyp3a11 expression (Western blot and BQ activity),Cyp3a11 [5]; [8],somewhat induced
same,fraction of BrdU positive cells in the liver,"liver cells; single dose 3 mg/kg, one day after dose",elevated counts of BrdU positive liver cells only in wild-type animals
same,Cyp2b10 expression (Western blot and PROD activity),"Cyp2b10 [3]; huCAR mice, TCPOBOP 1 mg/kg",did not significantly induce
same,"Cyp2b10 induction in liver (Western blot, densitometry)","Cyp2b10 [3]; koCAR mice, 1 mg/kg",no Cyp2b10 was induced
same,Cyp2b10 protein expression and PROD activity,"Cyp2b10 [3]; koPXR mice, TCPOBOP 1 mg/kg",comparable to wild type
same,Cyp2b10 expression (Western blot and PROD activity),Cyp2b10 [3]; [8],induced; also recorded: strongly induced
same,"Cyp2b10 induction profile (Western blot and PROD, liver microsomes)",Cyp2b10 [3],more strongly in the wild-type than huCAR mice
"Clc1ccc(-c2nc3sccn3c2C=NOCc2ccc(Cl)c(Cl)c2)cc1 [CITCO, 6-(4-chlorophenyl)imidazo[2,1-b][1,3]thiazole-5-carbaldehyde O-(3,4-dichlorobenzyl)oxime]",More potent in:,[4],human
same,Cyp3a11 expression in liver (Western blot),Cyp3a11 [5]; huCAR mice,clearly induced
same,Cyp3a11 expression in liver (Western blot),Cyp3a11 [5]; wild type mice,did not induce
same,fraction of BrdU positive cells in the liver,"liver cells; 20 mg/kg 4 times daily, one day after final dose","elevated counts of BrdU positive liver cells only in huCAR animals, not in the wild-type"
same,PROD activity,"Cyp2b10 [2]; huCAR mice, increasing amounts of CITCO","marked, dose-dependent induction of PROD activity"
same,Cyp2b10 induction (Western blot and PROD activity),Cyp2b10 [3]; huCAR mice,strong induction
same,Cyp2b10 expression in liver (Western blot),"Cyp2b10 [3]; huCAR mice, single injection 0, 1, 10, 50 mg/kg, 48 hours",clearly induced
same,Cyp2b10 induction (Western blot and PROD activity),Cyp2b10 [3]; koPXR mice,Some induction
same,Cyp2b10 expression in liver (Western blot),"Cyp2b10 [3]; wild type mice, single injection 0, 1, 10, 50 mg/kg, 48 hours",did not induce
same,Cyp2b10 induction (Western blot and PROD activity),Cyp2b10 [3]; wild-type mice,not substantially induced
same,"Cyp2b10 induction profile (Western blot and PROD, liver microsomes)",Cyp2b10 [3],stronger response in huCAR than in the wild-type
Clc1ccccc1C(c1ccccc1)(c1ccccc1)n1ccnc1 [Clotrimazole],More potent in:,[4],mouse
"CCCC(C)C1(CC)C(=O)NC(=O)NC1=O (stereo not shown) [pentobarbitone, sodium pentobarbitone]",Sleeping time,[6]; PXR/CAR hum (double humanised) male mouse,34 min
same,Sleeping time,[6]; wt male mouse,21 min
"CC(=O)[C@H]1[C@H](C#N)C[C@H]2[C@@H]3CC=C4C[C@@H](O)CC[C@]4(C)[C@H]3CC[C@@]21C [PCN, 5-Pregnen-3β-ol-20-one-16α-carbonitrile]",More potent in:,[4],mouse
same,induction of Cyp3a11 mRNA,Cyp3a11 [7],strongly induced
